Measurements: ChEMBL document CHEMBL1201862, “PubChem BioAssay data set” (2004)
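Values below derive from 48-hour exposures of cells grown in 96-well plates, with endpoints linearly interpolated between the two concentrations bracketing the appropriate inhibition level. GI50 is the concentration that inhibits growth by half.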 Activity calls are given as the source filed them. Rule as the data show it: active = GI50 up to about 1.1 µM and inactive = higher.

How the values were obtained:
Experiment in all cases: NCI tumour cell line growth inhibition, 48 h
KM-20L2 = tested on: KM-20L2
DMS-114 = tested on: DMS-114
EKVX = tested on: EKVX
M19-MEL = tested on: M19-MEL
NCI-H23 = tested on: NCI-H23
XF498 = tested on: XF498
NCI-H522 = tested on: NCI-H522
TK-10 = tested on: TK-10
OVCAR-4 = tested on: OVCAR-4
SN12C = tested on: SN12C
SF-268 = tested on: SF-268
IGROV-1 = tested on: IGROV-1
SNB-78 = tested on: SNB-78
786-0 = tested on: 786-0
LXFL 529 = tested on: LXFL 529
MCF7 = tested on: MCF7
T47D = tested on: T47D
PC-3 = tested on: PC-3
MDA-MB-231 = tested on: MDA-MB-231
DU-145 = tested on: DU-145

Measured: GI50

C=C(C)CCN[Si](c1ccccc1)(c1ccccc1)C(C)(C)C
inactive: KM-20L2 17.9 µM | DMS-114 21.7 µM | EKVX 22.1 µM | M19-MEL 20.5 µM | NCI-H23 19.4 µM | XF498 24.5 µM | NCI-H522 18.1 µM | TK-10 22.5 µM | OVCAR-4 19 µM | SN12C 18.2 µM | SF-268 30.5 µM | IGROV-1 27.1 µM | SNB-78 25.1 µM | 786-0 16.6 µM

CC(OC(C)(C)C)[C@H](NC(=O)OCC(Cl)(Cl)Cl)C(=O)O (stereo partly drawn)
inactive: KM-20L2 > 100 µM | DMS-114 > 100 µM | EKVX > 100 µM | M19-MEL > 100 µM | NCI-H23 > 100 µM | XF498 > 100 µM | NCI-H522 > 100 µM | TK-10 > 100 µM | OVCAR-4 > 100 µM | SN12C > 100 µM | LXFL 529 > 100 µM | SF-268 > 100 µM | IGROV-1 > 100 µM | SNB-78 > 100 µM

O=C1ON(Cc2ccccc2)C(c2ccccc2)N1c1ccccc1 (stereo not drawn)
inactive: KM-20L2 > 100 µM | DMS-114 > 100 µM | EKVX > 100 µM | M19-MEL > 100 µM | MCF7 > 100 µM | NCI-H23 > 100 µM | XF498 > 100 µM | NCI-H522 > 100 µM | OVCAR-4 > 100 µM | SN12C > 100 µM | SF-268 > 100 µM | IGROV-1 > 100 µM | SNB-78 > 100 µM

Cc1ccc(NC(=O)CC(=O)n2nc(-c3ccccc3)c(/N=N/c3ccccc3Cl)c2-c2ccccc2)cc1
inactive: KM-20L2 > 10 µM | DMS-114 > 10 µM | EKVX 88.9 µM | M19-MEL > 10 µM | NCI-H23 39.5 µM | XF498 49 µM | NCI-H522 65.8 µM | TK-10 83.9 µM | OVCAR-4 26.5 µM | SN12C > 10 µM | LXFL 529 71.8 µM | SF-268 > 10 µM | IGROV-1 > 10 µM | SNB-78 > 10 µM | 786-0 32.6 µM

CCOC(=O)C(Cc1ccccc1)NC(=O)OC(C)(C)C (stereo not drawn)
inactive: DMS-114 > 100 µM | M19-MEL > 100 µM | NCI-H23 > 100 µM | XF498 > 100 µM | NCI-H522 > 10 µM | TK-10 > 100 µM | SN12C > 100 µM | LXFL 529 > 100 µM | SF-268 > 100 µM | IGROV-1 > 100 µM | SNB-78 > 100 µM | 786-0 > 100 µM

O=NN1C(c2ccccc2)CCCC1c1ccccc1 (stereo not drawn)
inactive: KM-20L2 > 100 µM | DMS-114 28.6 µM | EKVX > 62.2 µM | M19-MEL 85.9 µM | MCF7 37.9 µM | NCI-H23 42 µM | XF498 31.7 µM | NCI-H522 23.4 µM | OVCAR-4 35.9 µM | SN12C > 100 µM | SF-268 > 100 µM | IGROV-1 > 89.7 µM | SNB-78 46.2 µM

O=C(/C=C/c1cccc2ccccc12)c1ccccc1Cl
inactive: KM-20L2 12.7 µM | DMS-114 12 µM | EKVX 15.1 µM | NCI-H23 14.3 µM | XF498 7.59 µM | NCI-H522 14.4 µM | TK-10 14.6 µM | OVCAR-4 15.1 µM | SN12C > 100 µM | LXFL 529 13.8 µM | SF-268 18.4 µM | IGROV-1 16.6 µM | SNB-78 19.6 µM | 786-0 14 µM

O=C1C=CC2=[N+]([O-])C(c3ccccc3)(c3ccccc3)/C(=N\c3ccccc3)C2=C1
inactive: KM-20L2 2.34 µM | DMS-114 1.85 µM | EKVX 4.14 µM | M19-MEL 1.77 µM | NCI-H23 2.38 µM | XF498 1.31 µM | NCI-H522 1.61 µM | TK-10 1.8 µM | OVCAR-4 1.8 µM | SN12C 2.22 µM | LXFL 529 1.78 µM | SF-268 3.28 µM | IGROV-1 1.82 µM | SNB-78 3.74 µM

CC(=O)O[C@]12CCCCCC1C1(O)C(O)CCCC[C@H]12 (stereo partly drawn)
inactive: KM-20L2 > 100 µM | DMS-114 > 100 µM | EKVX > 100 µM | M19-MEL > 100 µM | NCI-H23 > 100 µM | XF498 > 100 µM | NCI-H522 > 100 µM | TK-10 > 100 µM | OVCAR-4 > 100 µM | SN12C > 100 µM | LXFL 529 > 100 µM | SF-268 > 100 µM | SNB-78 > 100 µM | 786-0 > 100 µM

COC(=O)C12CC3CC(CC(C(=O)O)(C3)C1)C2
inactive: KM-20L2 > 100 µM | EKVX > 100 µM | M19-MEL > 100 µM | NCI-H23 > 100 µM | XF498 > 100 µM | NCI-H522 > 100 µM | TK-10 > 100 µM | OVCAR-4 > 100 µM | SN12C > 100 µM | LXFL 529 > 100 µM | SF-268 > 100 µM | IGROV-1 > 100 µM | SNB-78 > 100 µM | 786-0 > 100 µM

COC(=O)c1ccc(/N=N/N(C)COc2ccc([N+](=O)[O-])cc2)cc1
inactive: KM-20L2 54.3 µM | DMS-114 > 100 µM | EKVX > 100 µM | M19-MEL > 100 µM | MCF7 > 81.5 µM | NCI-H23 > 100 µM | XF498 > 100 µM | NCI-H522 > 100 µM | OVCAR-4 > 100 µM | SN12C > 100 µM | SF-268 > 78.2 µM | IGROV-1 > 100 µM | SNB-78 > 100 µM

O=S(=O)(O)c1ccc(/N=N\c2ccc(/N=N/c3ccc(/C=C/c4ccc(/N=[N+](\[O-])c5ccc(/C=C/c6ccc(/N=N/c7ccc(/N=N/c8ccc(S(=O)(=O)O)cc8)c8ccccc78)cc6S(=O)(=O)O)c(S(=O)(=O)O)c5)cc4S(=O)(=O)O)c(S(=O)(=O)O)c3)c3ccccc23)cc1
inactive: KM-20L2 > 100 µM | DMS-114 > 100 µM | EKVX > 100 µM | M19-MEL > 100 µM | MCF7 > 100 µM | NCI-H23 > 100 µM | XF498 > 66.8 µM | NCI-H522 54.5 µM | OVCAR-4 > 100 µM | SN12C > 100 µM | SF-268 > 100 µM | IGROV-1 32.3 µM | SNB-78 > 100 µM

CN1NC(c2ccccc2)=C(C#N)C(=O)CC1c1ccc(Br)cc1 (stereo not drawn)
inactive: KM-20L2 > 10 µM | NCI-H23 56.4 µM | XF498 28.6 µM | NCI-H522 22.3 µM | TK-10 75.3 µM | OVCAR-4 45.6 µM | SN12C 44.9 µM | LXFL 529 35.7 µM | SF-268 35.9 µM | SNB-78 48.8 µM

Cc1ccc(S(=O)OCC23CC4CC(CC(C4)C2)C3)cc1 (stereo not drawn)
inactive: KM-20L2 > 100 µM | EKVX > 100 µM | M19-MEL > 100 µM | NCI-H23 > 100 µM | XF498 > 100 µM | NCI-H522 > 100 µM | TK-10 > 100 µM | OVCAR-4 > 100 µM | SN12C > 100 µM | LXFL 529 > 100 µM | SF-268 > 100 µM | IGROV-1 > 100 µM | SNB-78 > 100 µM | 786-0 > 100 µM

C[C@]12CCC(=O)C(O)=C1CC[C@@H]1[C@@H]2CC[C@]2(C)C(=O)CC[C@@H]12 [FORMESTANE]
inactive: KM-20L2 > 100 µM | DMS-114 > 100 µM | EKVX > 88.9 µM | T47D > 100 µM | MCF7 > 100 µM | PC-3 > 100 µM | NCI-H23 > 100 µM | XF498 88.1 µM | NCI-H522 > 100 µM | TK-10 > 100 µM | OVCAR-4 > 100 µM | MDA-MB-231 > 100 µM | SN12C > 100 µM | DU-145 > 100 µM | LXFL 529 59.3 µM | SF-268 > 100 µM | IGROV-1 > 100 µM | SNB-78 > 100 µM | 786-0 > 100 µM

C=CCN1/C(=C(\C#N)c2nc3ccccc3[nH]2)Sc2c1nc[nH]c2=O
inactive: KM-20L2 > 100 µM | DMS-114 > 100 µM | EKVX > 100 µM | M19-MEL > 100 µM | NCI-H23 > 100 µM | XF498 > 100 µM | NCI-H522 > 100 µM | TK-10 > 100 µM | OVCAR-4 > 100 µM | SN12C > 100 µM | LXFL 529 > 100 µM | SF-268 > 100 µM | IGROV-1 > 100 µM | SNB-78 > 100 µM

O=C1NC2=C(CCCC/C2=N\O)C12CCCCC2
inactive: KM-20L2 > 100 µM | DMS-114 > 100 µM | EKVX > 100 µM | M19-MEL > 100 µM | NCI-H23 > 100 µM | XF498 > 100 µM | TK-10 > 100 µM | OVCAR-4 > 100 µM | SN12C > 100 µM | LXFL 529 > 100 µM | SF-268 > 100 µM | IGROV-1 > 100 µM | SNB-78 > 100 µM
